Literature values as cited in patent US8999893B2, “Stabilized oil-in-water emulsions including meptyl dinocap” (Dow AgroSciences LLC, priority 2008, dated 2015).

2,6-dinitro-4-octylphenyl crotonates and 2,4-dinitro-6-octylphenyl crotonates in which ‘octyl’ is a mixture of 1-methylheptyl, 1-ethylhexyl and 1-propylpentyl groups [Meptyl Dinocap]
solubility in water: 0.151 µg/mL
